Data taken from patent EP2966448B1, “METHOD FOR THE PREDICTION OR PROGNOSIS OF THE RESPONSE OF A HUMAN SUBJECT SUFFERING FROM CANCER TO TREATMENT WITH AN ANTAGONIST OF THE NK1 RECEPTOR” (priority 2013, dated 2014).
Like-named read-outs stand apart in the source and are kept apart here.

Assays:
[1] = tested on: human primary tumor cells; experiment: Inhibition of primary tumor cell cultures vs low or high expression of the truncated form of NK1 receptor (Example 5; tumor type per table line); type: cell-based; settings: for Percentage of inhibition of cell cultures: 100 micromolar
Description: (§1) Cell cultures. To obtain tumor cells from human primary tumors we used the method described in De Bari et al. (De Bari et al. 2001). Briefly, small pieces of the tumors were digested into a hyaluronidase solution (Sigma-Aldrich, USA) at a concentration of 1 mg/ml during 15 minutes at 37°C, and then they were treated with 6 mg/ml of collagenase type IV (Invitrogen) during 2 hours at 37°C. Consecutively, cells were washed, and resuspended in the DMEM culture medium with high concentration of glucose (Dulbecco's Modified Eagle's Medium, Invitrogen) supplemented with 1% of antibiotics-antimycotics (Invitrogen) and with 1% of sodium pyruvate (Invitrogen), and the cells were seeded in culture slides at a concentration of 10.000 cells per square centimeter. When cells reached confluence, the adherent cells were separated using sterile trypsin at 0,5% (Invitrogen) and they were used among passages 3 and 9. For the assays shown next, tumor cells were seeded on slides at a concentration of 25.000 cells per well. A total of 6 wells containing the tumor cells were used as survival control. […] All the cultures were kept during 48 hours and later on recollected for their analysis.
The presence of the truncated form of NK1 receptor was determined and then cells were cultured in presence of several antagonists of the NK1 receptor.
In each case the presence of the truncated form of the NK1 receptor was determined.
To determine the presence of the truncated form of the gene of NK1 receptor PCR technique was performed (Polymerase Chain Reaction). The extraction of RNA, amplifications of PCR, cycle conditions and quantitative analysis were executed as it has been previously described. The specific primers were the following: For the full-length NK1R receptor (NM_001058.3; forward (SEQ ID NO: 17)-: 5'-[sequence]-3 ' and reverse- (SEQ ID NO:18): 5'-[sequence]-3') and for the truncated NK1receptor (NM_015727.2; forward (SEQ ID NO: 19): 5'-[sequence]-3 and reverse (SEQ ID NO;20): 5'-[sequence]-3').
Cases were distributed in two groups: • Group A -low expression of the truncated form of NK1 receptor- for those cases wherein the expression of the truncated form of NK1 receptor was less than double the expression of the full length form of such receptor. • Group B -high expression of the truncated form of NK1 receptor- for those cases wherein the expression of the truncated form of the NK1 receptor was higher than double the expression of the full length form of such receptor.
The percentages of inhibition are expressed in percentage of variation in relation to the control ± standard deviation.

[2] = tested on: Glioma (astrocytoma); experiment: Inhibition of primary tumor cell cultures vs Kras mutation (Example 2); type: cell-based, human; settings: Homo sapiens, 100 micromolar, read-out: Percentage of inhibition of cell cultures
Description: as §1
(§2) In each case the presence or not of mutations in K-ras gene was determined.
(§3) To determine the existence of mutations in the K-ras gene DNA from cancer tumor cells was extracted from samples obtained from the different cancer tumor cells, using DNA extraction kits from Takara (Madison, WI, US) or Ambion (Huntingdon, Cambridgeshire, United Kingdom), following the manufacturer's instructions, and as it has been previously published (Di Fiore F, et al. 2007). Consecutively it was analyzed by sequencing the exon 2 of the KRAS gene, , by means of PCR amplification from previously extracted cancer tumor DNA, using the following sense primer (SEQ ID NO. 15): 5'-[sequence]-3' and anti-sense primer (SEQ ID NO. 16): 5'-[sequence]-3'. After the purification using the Qiagen extraction kit, the PCR products were sequenced using the Big Dye Terminator Kit V3.1 (Applied Biosystems, Foster City, CA, U.S.) and an ABI Prism 377 or 3100 DNA sequencer (Applied Biosystems). The presence of a heterozygous mutation in the KRAS gene in cancer tumor cells of the cultures was defined as the appearance of a mutant peak of a height of at least a third of the wild type. All the sequence analysis were executed at least twice in two independent PCR.
(§4) The antibody against NK1 receptor (Table 16) was used at 1/50 concentration. The percentages of inhibition are expressed in percentage of variation in relation to control ± standard deviation.

[3] = tested on: Hodgkin lymphoma; experiment: Inhibition of primary tumor cell cultures (48 hours) vs NK1 receptor immunostaining (Example 1); type: cell-based; settings: Homo sapiens, 1 micromolar, read-out: Percentage of inhibition of cell cultures
Description: as §1
(§5) Immunohistochemistry techniques. The presence of NK1 receptors was also analyzed using immunohistochemistry techniques. Briefly, a sample of each of the cultures of the cell lines used in the present invention, was centrifuged (5 minutes at 1.500 rpm) and the pellet obtained was dehydrated using increasing concentrations of ethanol and, finally, xylol. Then, said dehydrated samples were embedded in paraffin, creating a block of cells. Such paraffin blocks were cut with a microtome at 5 microns thickness, and were placed on microscope slides adequate to perform immunohistochemistry techniques. Consecutively, they were de-paraffinized by immersing them in xylol, to be finally hydrated using a solution containing decreasing concentrations of ethanol, and finally submerged them into water. […] After this, the samples were left to cool down at room temperature for 10 minutes. The endogenous peroxidase activity was blocked with 3% peroxide of hydrogen for 30 minutes at room temperature. After washing the samples with 0.05 M of Tris buffer, they were incubated with 10% non-immune pork serum at for 30 minutes at room temperature. To analyze the expression of NK1 receptors, the cellular samples were incubated in the presence of anti-NK1 antibodies (S8305, Sigma-Aldrich) diluted 1:1000, overnight at 4°C. Afterwards, the samples were washed in Tris buffer 0.05 M at room temperature. The next step was the addition of Envision System-HRP (Dako) reagents for 30 minutes at room temperature. Then, the samples were washed again in Tris buffer 0.05 M and the immunoreactivity was visualized through light microscopy with a chromogenic solution containing 3,3'-Diaminobenzidine (DAB+; Dako, USA). To differentiate the cell nuclei, they were slightly stained with hematoxylin. As negative control, it was used samples not incubated with the primary antibody anti-NK1, which was replaced by non-immune serum. All the samples were evaluated.
(§6) To value the immunostaining in each of the cases six cuts were performed to be analyzed by the immunohistochemistry technique. In each of the six cuts, it was counted cells in 20 fields (magnification 400x) using an Olympus microscope (model CX31). In each field it was counted the total number of cells and the number of cells presenting immunostaining, calculating afterwards the percentage of cells which presented immunostaining.

[4] = tested on: Glioma; experiment: as above; type: cell-based; settings: Homo sapiens, 1 micromolar, read-out: Percentage of inhibition of cell cultures
Description: as §1, §5, §6

[5] = tested on: Ewing Sarcoma; experiment: as above; type: cell-based; settings: Homo sapiens, 1 micromolar, read-out: Percentage of inhibition of cell cultures
[6] = tested on: Non Hodgkin Lymphoma B; experiment: as above; type: cell-based; settings: Homo sapiens, 1 micromolar, read-out: Percentage of inhibition of cell cultures
Description: as §1, §5, §6

[7] = tested on: Thyroid carcinoma (follicular carcinoma); experiment: Inhibition of primary tumor cell cultures vs Kras mutation (Example 2); type: cell-based, human; settings: Homo sapiens, 100 micromolar, read-out: Percentage of inhibition of cell cultures
Description: (§7) To obtain tumor cells from human primary tumors we used the method described in De Bari et al. (De Bari et al. 2001). Briefly, small pieces of the tumors were digested into a hyaluronidase solution (Sigma-Aldrich, USA) at a concentration of 1 mg/ml during 15 minutes at 37°C, and then they were treated with 6 mg/ml of collagenase type IV (Invitrogen) during 2 hours at 37°C. Consecutively, cells were washed, and resuspended in the DMEM culture medium with high concentration of glucose (Dulbecco's Modified Eagle's Medium, Invitrogen) supplemented with 1% of antibiotics-antimycotics (Invitrogen) and with 1% of sodium pyruvate (Invitrogen), and the cells were seeded in culture slides at a concentration of 10.000 cells per square centimeter. When cells reached confluence, the adherent cells were separated using sterile trypsin at 0,5% (Invitrogen) and they were used among passages 3 and 9. For the assays shown next, tumor cells were seeded on slides at a concentration of 25.000 cells per well. A total of 6 wells containing the tumor cells were used as survival control. […] All the cultures were kept during 48 hours and later on recollected for their analysis.
as §2, §3, §4

[8] = tested on: Burkitt Lymphoma; experiment: as above; type: cell-based, human; settings: Homo sapiens, 100 micromolar, read-out: Percentage of inhibition of cell cultures
Description: as §1, §2, §3, §4

[9] = tested on: Lung carcinoma (non small cell lung carcinoma); experiment: as above; type: cell-based, human; settings: Homo sapiens, 100 micromolar, read-out: Percentage of inhibition of cell cultures
Description: as §7, §2, §3, §4

[10] = tested on: Ovarian carcinoma (Adenocarcinoma); experiment: as above; type: cell-based, human; settings: Homo sapiens, 100 micromolar, read-out: Percentage of inhibition of cell cultures
Description: Cell cultures. […] Briefly, small pieces of the tumors were digested into a hyaluronidase solution (Sigma-Aldrich, USA) at a concentration of 1 mg/ml during 15 minutes at 37°C, and then they were treated with 6 mg/ml of collagenase type IV (Invitrogen) during 2 hours at 37°C. Consecutively, cells were washed, and resuspended in the DMEM culture medium with high concentration of glucose (Dulbecco's Modified Eagle's Medium, Invitrogen) supplemented with 1% of antibiotics-antimycotics (Invitrogen) and with 1% of sodium pyruvate (Invitrogen), and the cells were seeded in culture slides at a concentration of 10.000 cells per square centimeter. When cells reached confluence, the adherent cells were separated using sterile trypsin at 0,5% (Invitrogen) and they were used among passages 3 and 9. For the assays shown next, tumor cells were seeded on slides at a concentration of 25.000 cells per well. A total of 6 wells containing the tumor cells were used as survival control. […] All the cultures were kept during 48 hours and later on recollected for their analysis.
as §2, §3, §4

[11] = tested on: Colon carcinoma; experiment: Inhibition of primary tumor cell cultures (48 hours) vs NK1 receptor immunostaining (Example 1); type: cell-based; settings: Homo sapiens, 1 micromolar, read-out: Percentage of inhibition of cell cultures
Description: as §1, §5, §6

[12] = Cases with Kras non-mutated (wild type)
[13] = NK1 receptor immunostaining Group 1 (less than 20% of the cells)
[14] = NK1 receptor immunostaining Group 2 (20-80% of the cells)
[15] = NK1 receptor immunostaining Group 3 (more than 80% of the cells)
[16] = NK1 receptor immunostaining Intensity grade 1
[17] = NK1 receptor immunostaining Intensity grade 2
[18] = NK1 receptor immunostaining Intensity grade 3

For `CC(=O)N1CCN([C@H]2CCN(C(=O)N(C)[C@H](C)c3cc(C(F)(F)F)cc(C(F)(F)F)c3)[C@@H](c3ccc(F)cc3C)C2)CC1` [Casopitant], the “Percentage of inhibition of cell cultures” value ([1]; Lung carcinoma (non small cell lung carcinoma), Cases with high expression of the truncated form of NK1 receptor (Group B)) was 95±6 percentage, the “Percentage of inhibition of cell cultures” value ([1]; Lung carcinoma (non small cell lung carcinoma), Cases with low expression of the truncated form of NK1 receptor (Group A)) was 25±4 percentage and the “Percentage of inhibition of cell cultures” value ([1]; Melanoma (Nodular Melanoma), Cases with high expression of the truncated form of NK1 receptor (Group B)) was 96±6 percentage. For the same compound, the “Percentage of inhibition of cell cultures” value ([1]; Melanoma (Nodular Melanoma), Cases with low expression of the truncated form of NK1 receptor (Group A)) was 23±5 percentage, the “Percentage of inhibition of cell cultures” value ([1]; Non Hodgkin Lymphoma B (diffuse B cell lymphoma), Cases with high expression of the truncated form of NK1 receptor (Group B)) was 97±4 percentage and the “Percentage of inhibition of cell cultures” value ([1]; Non Hodgkin Lymphoma B (diffuse B cell lymphoma), Cases with low expression of the truncated form of NK1 receptor (Group A)) was 24±3 percentage. For the same compound, the “Percentage of inhibition of cell cultures” value ([1]; Non Hodgkin Lymphoma T (diffuse T cell lymphoma), Cases with high expression of the truncated form of NK1 receptor (Group B)) was 98±3 percentage, the “Percentage of inhibition of cell cultures” value ([1]; Non Hodgkin Lymphoma T (diffuse T cell lymphoma), Cases with low expression of the truncated form of NK1 receptor (Group A)) was 23±4 percentage and the “Percentage of inhibition of cell cultures” value ([1]; Prostate carcinoma, Cases with high expression of the truncated form of NK1 receptor (Group B)) was 94±4 percentage. For the same compound, the “Percentage of inhibition of cell cultures” value ([1]; Prostate carcinoma, Cases with low expression of the truncated form of NK1 receptor (Group A)) was 23±6 percentage, the “Percentage of inhibition of cell cultures” value ([1]; Thyroid carcinoma (follicular carcinoma), Cases with high expression of the truncated form of NK1 receptor (Group B)) was 93±4 percentage and the “Percentage of inhibition of cell cultures” value ([1]; Thyroid carcinoma (follicular carcinoma), Cases with low expression of the truncated form of NK1 receptor (Group A)) was 23±3 percentage. For the same compound, the “Percentage of inhibition of cell cultures” value ([1]; Thyroid carcinoma (papillary carcinoma), Cases with high expression of the truncated form of NK1 receptor (Group B)) was 94±5 percentage, the “Percentage of inhibition of cell cultures” value ([1]; Thyroid carcinoma (papillary carcinoma), Cases with low expression of the truncated form of NK1 receptor (Group A)) was 24±5 percentage and the “Percentage of inhibition of cell cultures” value ([1]; Undifferentiated Pleomorphic Sarcoma (malignant fibrous histiocytoma grade 3), Cases with high expression of the truncated form of NK1 receptor (Group B)) was 94±5 percentage. The “Percentage of inhibition of cell cultures” value ([1]; Undifferentiated Pleomorphic Sarcoma (malignant fibrous histiocytoma grade 3), Cases with low expression of the truncated form of NK1 receptor (Group A)) was 25±4 percentage, the “Percentage of inhibition of cell cultures” value ([1]; Urinary bladder carcinoma (transitional cell carcinoma), Cases with high expression of the truncated form of NK1 receptor (Group B)) was 95±7 percentage and the “Percentage of inhibition of cell cultures” value ([1]; Urinary bladder carcinoma (transitional cell carcinoma), Cases with low expression of the truncated form of NK1 receptor (Group A)) was 25±4 percentage. The “inhibition of cell proliferation” value ([1]; cancer cell cultures that show more expression of the truncated form of NK1 receptor, compared, non-peptidic antagonists 100 micromolar, antibody 1/50) was “higher inhibition”, the inhibition at 100 µM ([2]; Cases with Kras mutated) was 26 ± 4% and the inhibition at 100 µM [2, 12] was 94 ± 6%. For the same compound, the inhibition at 1 µM [3, 13] was 15 ± 2%, the inhibition at 1 µM [3, 14] was 47 ± 4% and the inhibition at 1 µM [3, 15] was 95 ± 4%. For the same compound, the inhibition at 1 µM [3, 16] was 34 ± 5%, the inhibition at 1 µM [3, 17] was 54 ± 4% and the inhibition at 1 µM [3, 18] was 92 ± 4%. The inhibition at 1 µM [4, 13] was 16 ± 3%, the inhibition at 1 µM [4, 14] was 46 ± 4% and the inhibition at 1 µM [4, 15] was 93 ± 5%. The inhibition at 1 µM [4, 16] was 36 ± 3%, the inhibition at 1 µM [4, 17] was 54 ± 5% and the inhibition at 1 µM [4, 18] was 91 ± 3%. It also gave an inhibition at 1 µM [5, 13] of 15 ± 2%, an inhibition at 1 µM [5, 14] of 47 ± 5% and an inhibition at 1 µM [5, 15] of 93 ± 5%. It also gave an inhibition at 1 µM [5, 16] of 33 ± 4%, an inhibition at 1 µM [5, 17] of 54 ± 3% and an inhibition at 1 µM [5, 18] of 92 ± 4%. It also gave an inhibition at 1 µM [6, 13] of 15 ± 3%, an inhibition at 1 µM [6, 14] of 46 ± 5% and an inhibition at 1 µM [6, 15] of 94 ± 4%. For the same compound, the inhibition at 1 µM [6, 16] was 32 ± 3%, the inhibition at 1 µM [6, 17] was 55 ± 5% and the inhibition at 1 µM [6, 18] was 94 ± 4%. For the same compound, the inhibition at 100 µM ([7]; Cases with Kras mutated) was 26 ± 4%, the inhibition at 100 µM [7, 12] was 96 ± 4% and the inhibition at 100 µM ([8]; Cases with Kras mutated) was 25 ± 2%. For the same compound, the inhibition at 100 µM [8, 12] was 92 ± 5%, the inhibition at 100 µM ([9]; Cases with Kras mutated) was 25 ± 5% and the inhibition at 100 µM [9, 12] was 95 ± 5%. The inhibition at 100 µM ([10]; Cases with Kras mutated) was 29 ± 4%, the inhibition at 100 µM [10, 12] was 97 ± 6% and the inhibition at 1 µM [11, 13] was 13 ± 3%. The inhibition at 1 µM [11, 14] was 46 ± 3%, the inhibition at 1 µM [11, 15] was 92 ± 3% and the inhibition at 1 µM [11, 16] was 32 ± 4%. For the same compound, the inhibition at 1 µM [11, 17] was 54 ± 4% and the inhibition at 1 µM [11, 18] was 92 ± 2%.
